This note sets out measurements from ChEMBL document CHEMBL5576042, “Fungal Depsidones Stimulate AKT-Dependent Glucose Uptake in 3T3-L1 Adipocytes” (J Nat Prod, 2024).

Data set [1] deals with 3T3-L1. As to the kind of experiment: Induction of glucose uptake in mouse 3T3-L1 cells assessed as increase in glucose uptake at 2.3 uM incubated for 16 hrs in presence of 2-[3H]-deoxyglucose by microbeta analysis. The format is functional.
Data set [2] deals with 3T3-L1. The data set is described as follows: Induction of glucose uptake in mouse 3T3-L1 cells assessed as increase in glucose uptake by measuring fold change at 11 uM incubated for 6 hrs in presence of 0.5 uM wortmannin. The format is functional.
The test system of data set [3] is 3T3-L1. The data set is described as follows: Effect on GLUT4 mRNA expression in mouse 3T3-L1 cells at 11 uM incubated for 6 hrs by real time qPCR analysis. The format is functional, cell-based.
Data set [4] deals with 3T3-L1. The data set is described as follows: Induction of glucose uptake in mouse 3T3-L1 cells assessed as increase in glucose uptake incubated for 16 hrs in presence 2-[3H]-deoxyglucose by microbeta analysis. Particulars: dose 2.8-11 µM. The format is functional, cell-based.
Data set [5] in a line: Upregulation of AMPK expression in mouse 3T3-L1 cells assessed as fold change at 11 uM measured at 1 hr by Western blot analysis. The format is functional.
The test system of data set [6] is 3T3-L1. As to the kind of experiment: Induction of glucose uptake in mouse 3T3-L1 cells assessed as increase in glucose uptake at 11 uM incubated for 16 hrs in presence of 0.1 uM dorsomorphin. The format is functional, cell-based.
Data set [7] in a line: Effect on ACTbeta mRNA expression in mouse 3T3-L1 cells assessed as fold change at 11 uM incubated for 6 hrs by real time qPCR analysis. The format is functional.
The target of data set [8] is T1, Solute carrier family 2, facilitated glucose transporter member 1 (Mus musculus) (UniProt P17809).
T1 sequence (whole entry): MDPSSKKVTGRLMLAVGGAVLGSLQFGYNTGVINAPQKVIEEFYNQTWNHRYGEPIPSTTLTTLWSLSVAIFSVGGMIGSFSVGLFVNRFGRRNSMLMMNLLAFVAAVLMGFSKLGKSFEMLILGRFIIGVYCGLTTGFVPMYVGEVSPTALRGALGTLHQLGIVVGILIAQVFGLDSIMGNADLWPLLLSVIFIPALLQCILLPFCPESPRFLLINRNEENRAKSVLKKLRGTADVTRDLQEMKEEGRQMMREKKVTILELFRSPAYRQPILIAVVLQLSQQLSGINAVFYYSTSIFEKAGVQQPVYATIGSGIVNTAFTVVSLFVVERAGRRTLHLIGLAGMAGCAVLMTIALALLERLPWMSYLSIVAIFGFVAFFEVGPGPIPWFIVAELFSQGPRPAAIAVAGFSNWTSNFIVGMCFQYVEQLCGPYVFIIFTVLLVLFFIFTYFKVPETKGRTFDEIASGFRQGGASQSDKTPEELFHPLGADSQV
As to the kind of experiment: Induction of GLUT1 translocation in mouse 3T3-L1 cells membrane assessed as fold increase in Na+/K+ ATPase level by Western blot analysis. The format is cell membranes.

For data set [9], the target named is T1, Solute carrier family 2, facilitated glucose transporter member 1 (Mus musculus). The data set is described as follows: Induction of GLUT1 translocation in mouse 3T3-L1 cells Cytosol by Western blot analysis. The format is subcellular.
Data set [10] has as its system 3T3-L1. As to the kind of experiment: Induction of AKT phosphorylation at ser473 residue in insulin-resistant mouse 3T3-L1 cells assessed as fold change in presence of insulin. Particulars: filed as activator. The format is cell-based.
In data set [11] the test system is 3T3-L1. As to the kind of experiment: Induction of glucose uptake in mouse 3T3-L1 cells assessed as increase in glucose uptake by measuring fold change at 11 uM incubated for 6 hrs in presence of 0.25 uM wortmannin. The format is functional.
Data set [12] is described as follows: Effect on NONO mRNA expression in mouse 3T3-L1 cells assessed as fold change at 11 uM incubated for 6 hrs by real time qPCR analysis. The format is functional.
Data set [13] relates to 3T3-L1. The data set is described as follows: Induction of glucose uptake in insulin resistant-mouse 3T3-L1 cells assessed as fold increase in glucose uptake at 11 uM incubated for 16 hrs in presence of 2-[3H]-deoxyglucose and insulin. The format is functional.
Data set [14] relates to 3T3-L1. The data set is described as follows: Induction of AKT phosphorylation at ser473 residue in mouse 3T3-L1 cells assessed as fold change at 11 uM measured at 6 hrs by Western blot analysis. The format is cell-based. Particulars: filed as activator.
Data set [15] has as its system 3T3-L1. The data set is described as follows: Induction of glucose uptake in mouse 3T3-L1 cells assessed as increase in glucose uptake at 11 uM incubated for 16 hrs in presence of 0.1 uM wortmannin. The format is functional, cell-based.
Data set [16] deals with 3T3-L1. As to the kind of experiment: Induction of glucose uptake in mouse 3T3-L1 cells assessed as increase in glucose uptake at 11.27 uM in presence 2-[3H]-deoxyglucose by microbeta analysis. The format is functional, cell-based. Particulars: time 3-16 hrs, TDE = time-dependent effect.
Data set [17] deals with 3T3-L1. As to the kind of experiment: Induction of AKT phosphorylation at ser473 residue in mouse 3T3-L1 cells assessed as fold change at 11 uM measured at 1 hr by Western blot analysis. The format is cell-based. Particulars: filed as activator.
The nature of data set [18]: Effect on GLUT4 protein level in mouse 3T3-L1 cells assessed as fold change at 11 uM incubated for 16 hrs. The format is functional.
Data set [19] has as its system 3T3-L1. The data set is described as follows: Induction of glucose uptake in metformin-stimulated mouse 3T3-L1 cells assessed as increase in glucose uptake at 11 uM incubated for 16 hrs presence 2-[3H]-deoxyglucose by microbeta analysis. The format is functional.
For data set [20], the target named is T2, Solute carrier family 2, facilitated glucose transporter member 4 (Mus musculus) (UniProt P14142).
T2 sequence (whole entry): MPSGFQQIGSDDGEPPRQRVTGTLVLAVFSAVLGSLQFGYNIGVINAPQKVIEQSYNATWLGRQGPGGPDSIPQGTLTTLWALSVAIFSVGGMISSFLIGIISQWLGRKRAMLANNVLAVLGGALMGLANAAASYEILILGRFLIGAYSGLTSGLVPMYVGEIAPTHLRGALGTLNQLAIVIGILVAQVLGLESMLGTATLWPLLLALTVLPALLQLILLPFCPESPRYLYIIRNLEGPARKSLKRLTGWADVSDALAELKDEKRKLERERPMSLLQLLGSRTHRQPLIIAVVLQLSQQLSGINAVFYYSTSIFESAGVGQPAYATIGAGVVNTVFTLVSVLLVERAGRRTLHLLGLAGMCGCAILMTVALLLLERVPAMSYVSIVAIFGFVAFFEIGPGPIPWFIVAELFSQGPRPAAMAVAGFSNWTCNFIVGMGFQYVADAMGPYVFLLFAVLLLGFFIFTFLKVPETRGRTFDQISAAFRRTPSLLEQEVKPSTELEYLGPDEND
As to the kind of experiment: Induction of GLUT4 translocation in mouse 3T3-L1 cells membrane by Western blot analysis. The format is cell membranes.

Data set [21] has as its system 3T3-L1. As to the kind of experiment: Induction of glucose uptake in mouse 3T3-L1 cells assessed as increase in glucose uptake by measuring fold change at 11 uM incubated for 6 hrs in presence of 0.1 uM wortmannin. The format is functional.
Data set [22] is described as follows: Upregulation of AMPK expression in mouse 3T3-L1 cells assessed as fold change at 11 uM measured at 6 hrs by Western blot analysis. The format is functional.
Data set [23] relates to 3T3-L1. As to the kind of experiment: Induction of glucose uptake in insulin-stimulated mouse 3T3-L1 cells assessed as increase in glucose uptake at 11 uM incubated for 16 hrs presence 2-[3H]-deoxyglucose by microbeta analysis. The format is functional.
Data set [24] has as its system 3T3-L1. The data set is described as follows: Induction of AKT phosphorylation at ser473 residue in mouse 3T3-L1 cells measured up to 6 hrs by Western blot analysis. The format is cell-based. Particulars: filed as activator.
The target in data set [25] is T2, Solute carrier family 2, facilitated glucose transporter member 4 (Mus musculus). As to the kind of experiment: Induction of GLUT4 translocation in mouse 3T3-L1 cells membrane assessed as fold increase in Na+/K+ ATPase level by Western blot analysis. The format is cell membranes.
In data set [26] the test system is 3T3-L1. As to the kind of experiment: Induction of glucose uptake in mouse 3T3-L1 cells assessed as increase in glucose uptake at 11 uM incubated for 6 hrs in presence of 0.5 uM wortmannin. The format is functional.
In data set [27] the test system is 3T3-L1. As to the kind of experiment: Induction of glucose uptake in insulin resistant-mouse 3T3-L1 cells assessed as fold increase in glucose uptake at 11 uM incubated for 16 hrs in presence of 2-[3H]-deoxyglucose. The format is functional.
The subject of data set [28] is 3T3-L1. The data set is described as follows: Induction of glucose uptake in mouse 3T3-L1 cells assessed as increase in glucose uptake at 11 uM incubated for 16 hrs in presence of wortmannin. The format is functional, cell-based.
The target in data set [29] is T2, Solute carrier family 2, facilitated glucose transporter member 4 (Mus musculus). The data set is described as follows: Induction of GLUT4 translocation in mouse 3T3-L1 cells Cytosol by Western blot analysis. The format is subcellular.
The subject of data set [30] is 3T3-L1. The data set is described as follows: Cytotoxicity against mouse 3T3-L1 cells assessed as reduction in cell viability at 45 to 68 uM incubated for 18 hrs. The format is toxicity, cell-based. The settings on record: 3t3-l1, 18 h, dose 45-68 µM.
For data set [31], the system named is 3T3-L1. As to the kind of experiment: Induction of AKT phosphorylation at ser473 residue in insulin-resistant mouse 3T3-L1 cells in presence of insulin. The format is cell-based. Particulars: filed as activator.
The test system of data set [32] is 3T3-L1. The data set is described as follows: Induction of glucose uptake in insulin-stimulated mouse 3T3-L1 cells assessed as increase in glucose uptake at 100 nM incubated for 16 hrs presence 2-[3H]-deoxyglucose by microbeta analysis. The format is functional, cell-based.
The subject of data set [33] is 3T3-L1. The data set is described as follows: Induction of glucose uptake in mouse 3T3-L1 cells assessed as increase in glucose uptake at 3.1 uM incubated for 16 hrs in presence of 2-[3H]-deoxyglucose by microbeta analysis. The format is functional.

Activity calls are given as the source filed them. No cut-off for these calls is given here.

`C/C=C(\C)c1c(Cl)c(O)c(C)c2c1Oc1c(Cl)c(O)c(Cl)c(C)c1C(=O)O2`: the Activity in the data set on 3T3-L1 [1] came out at 121%.
`C/C=C(\C)c1c(Cl)c(OC)c(C)c2c1Oc1c(Cl)c(O)c(Cl)c(C)c1C(=O)O2`: the “fold change (FC)” value is 1.2 in the data set with 3T3-L1 [2]; 3.7 in data set [5]; 1.92 in data set [7]; 1.6 in [8]; 2.1 in the data set with 3T3-L1 [10]; 1.4 in the data set with 3T3-L1 [11]. Also, the “fold change (FC)” value in [12] stood at 2.07; with 3T3-L1 [13] it was 2.7; in the data set on 3T3-L1 [14], 19; in the data set on 3T3-L1 [17], 2.4; in data set [18] it was 1.67; with 3T3-L1 [21], 1.5. For the same molecule, the entries for the “fold change (FC)” value (in [22]; in data set [25]; with 3T3-L1 [27]) were 3.8, 1.7 and 2.4, respectively. In addition, the outcome (in the data set on 3T3-L1 [3]; in data set [9]; in [20]; in the data set with 3T3-L1 [24]; in data set [29]; in the data set on 3T3-L1 [31]) was Active. The outcome in the data set with 3T3-L1 [32] was Active. For the same molecule, the Activity result in the data set with 3T3-L1 [4] was “Dose-Dependent Effect”; in the data set with 3T3-L1 [16] it was “Tde”; in the data set with 3T3-L1 [19], 252%; in the data set on 3T3-L1 [1], 141%; in the data set with 3T3-L1 [23], 276%; with 3T3-L1 [26], 20%. In addition, in the data set on 3T3-L1 [30], the Activity entry is given as “Non-Toxic”. Also, the outcome in the data set with 3T3-L1 [6], in the data set with 3T3-L1 [15] and in the data set on 3T3-L1 [28] was inactive.
Consider `C/C=C(\C)c1cc(O)c(C)c2c1Oc1cc(O)cc(C)c1C(=O)O2`, for which the Activity in the data set on 3T3-L1 [33] is 124%.
